Experimental data reported in ChEMBL document CHEMBL4376845, “Design, Synthesis, and Biological Evaluation of MEK PROTACs” (J Med Chem, 2020).
Calls of active or inactive are those of the source. The calls are words filed in the database; no cut-off is given here.

Assays:
[1] = target: T1, von Hippel-Lindau disease tumor suppressor/Dual specificity mitogen-activated protein kinase kinase 2/Dual specificity mitogen-activated protein kinase kinase 1 (Homo sapiens) (UniProt P36507+Q02750+P40337); assay: Protac activity at VHL/MEK in human A375 cells assessed as reduction in ERK1/2 phosphorylation at 10 uM incubated for >=8 hrs in presence of poly(I:C) stimulation by Surefire assay relative to control; format: cell-based
T1 sequence (P36507 whole entry, looked up): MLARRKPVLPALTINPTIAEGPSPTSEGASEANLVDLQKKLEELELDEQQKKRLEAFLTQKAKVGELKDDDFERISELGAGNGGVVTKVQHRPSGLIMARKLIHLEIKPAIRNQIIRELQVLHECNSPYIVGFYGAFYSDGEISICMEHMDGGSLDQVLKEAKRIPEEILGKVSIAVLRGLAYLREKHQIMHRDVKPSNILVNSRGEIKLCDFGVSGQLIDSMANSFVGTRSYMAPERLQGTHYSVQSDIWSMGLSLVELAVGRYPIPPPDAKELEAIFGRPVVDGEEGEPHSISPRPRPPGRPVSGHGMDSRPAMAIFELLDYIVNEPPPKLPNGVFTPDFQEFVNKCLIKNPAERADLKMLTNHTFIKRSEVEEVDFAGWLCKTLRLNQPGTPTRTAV
T1 sequence (P40337 whole entry, looked up): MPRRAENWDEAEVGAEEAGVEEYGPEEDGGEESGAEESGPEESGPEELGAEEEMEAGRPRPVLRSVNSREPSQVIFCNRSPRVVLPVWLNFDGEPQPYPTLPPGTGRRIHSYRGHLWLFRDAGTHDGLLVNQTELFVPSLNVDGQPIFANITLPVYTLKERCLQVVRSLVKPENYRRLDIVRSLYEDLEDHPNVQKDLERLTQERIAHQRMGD
T1 sequence (Q02750 whole entry, looked up): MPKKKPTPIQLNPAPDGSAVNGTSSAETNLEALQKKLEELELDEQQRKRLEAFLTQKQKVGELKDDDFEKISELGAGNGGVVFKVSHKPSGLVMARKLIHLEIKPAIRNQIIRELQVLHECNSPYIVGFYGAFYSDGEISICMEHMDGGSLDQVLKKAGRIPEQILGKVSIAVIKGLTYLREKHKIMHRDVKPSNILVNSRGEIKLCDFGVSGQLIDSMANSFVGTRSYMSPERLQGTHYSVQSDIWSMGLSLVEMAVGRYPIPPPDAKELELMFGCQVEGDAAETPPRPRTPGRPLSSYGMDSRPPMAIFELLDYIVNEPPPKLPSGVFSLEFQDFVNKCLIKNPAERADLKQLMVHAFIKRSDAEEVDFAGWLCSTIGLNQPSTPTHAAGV

[2] = target: T1, von Hippel-Lindau disease tumor suppressor/Dual specificity mitogen-activated protein kinase kinase 2/Dual specificity mitogen-activated protein kinase kinase 1 (Homo sapiens); assay: Protac activity at VHL/MEK in human A375 cells assessed as MEK1 degradation at 1 uM incubated for 16 hrs in presence of poly(I:C) stimulation by Surefire assay relative to control; format: cell-based
A-375 [3] = assay: Antiproliferative activity against human A375 cells assessed as growth inhibition at 10 uM measured up to 72 hrs by IncuCyte zoom live cell analysis; format: functional, cell-based
[4] = target: T1, von Hippel-Lindau disease tumor suppressor/Dual specificity mitogen-activated protein kinase kinase 2/Dual specificity mitogen-activated protein kinase kinase 1 (Homo sapiens); assay: Protac activity at VHL/MEK in human A375 cells assessed as MEK1 degradation at 1 to 10 uM incubated for 12 hrs followed by poly(I:C) treatment and measured after 4 hrs by Surefire assay; format: cell-based
[5] = target: T1, von Hippel-Lindau disease tumor suppressor/Dual specificity mitogen-activated protein kinase kinase 2/Dual specificity mitogen-activated protein kinase kinase 1 (Homo sapiens); assay: Protac activity at VHL/MEK in human A375 cells assessed as MEK1 degradation at 10 uM incubated for 16 hrs in presence of poly(I:C) stimulation by immunoblotting analysis; format: cell-based
[6] = target: T1, von Hippel-Lindau disease tumor suppressor/Dual specificity mitogen-activated protein kinase kinase 2/Dual specificity mitogen-activated protein kinase kinase 1 (Homo sapiens); assay: Protac activity at VHL/MEK in human A375 cells assessed as MEK1 degradation at 10 uM incubated for 16 hrs in presence of poly(I:C) stimulation by Surefire assay relative to control; format: cell-based
[7] = target: T1, von Hippel-Lindau disease tumor suppressor/Dual specificity mitogen-activated protein kinase kinase 2/Dual specificity mitogen-activated protein kinase kinase 1 (Homo sapiens); assay: Protac activity at VHL/MEK in human A375 cells assessed as […] at <10 uM incubated for 12 hrs followed by poly(I:C) treatment and measured after 4 hrs by Surefire assay; format: cell-based
[8] = target: T2, Dual specificity mitogen-activated protein kinase kinase 1 (Homo sapiens, UniProt Q02750); assay: Inhibition of MEK1 (unknown origin) incubated for 60 mins in presence of ATP by Kinase Glo luminescence assay
T2 sequence (Q02750 whole entry): as the sequence (Q02750 whole entry, looked up) above

[9] = target: T1, von Hippel-Lindau disease tumor suppressor/Dual specificity mitogen-activated protein kinase kinase 2/Dual specificity mitogen-activated protein kinase kinase 1 (Homo sapiens); assay: Protac activity at VHL/MEK in human A375 cells assessed as reduction in ERK1/2 phosphorylation at 10 uM incubated for 2 hrs in presence of poly(I:C) stimulation by Surefire assay; format: cell-based
[10] = target: T1, von Hippel-Lindau disease tumor suppressor/Dual specificity mitogen-activated protein kinase kinase 2/Dual specificity mitogen-activated protein kinase kinase 1 (Homo sapiens); assay: Protac activity at VHL/MEK in human A375 cells assessed as MEK2 degradation at 10 uM incubated for 16 hrs in presence of poly(I:C) stimulation by immunoblotting analysis; format: cell-based
[11] = target: T1, von Hippel-Lindau disease tumor suppressor/Dual specificity mitogen-activated protein kinase kinase 2/Dual specificity mitogen-activated protein kinase kinase 1 (Homo sapiens); assay: Protac activity at VHL/MEK in human A375 cells assessed as reduction in IL6 secretion at 10 uM incubated for 12 hrs followed by poly(I:C) treatment and measured after 4 hrs by AlphaLISA assay; format: cell-based
[12] = target: T1, von Hippel-Lindau disease tumor suppressor/Dual specificity mitogen-activated protein kinase kinase 2/Dual specificity mitogen-activated protein kinase kinase 1 (Homo sapiens); assay: Protac activity at VHL/MEK in human A375 cells assessed as maximal MEK1 degradation at 10 uM incubated for 8 hrs in presence of ploy(I:C) stimulation by Surefire assay; format: cell-based
[13] = target: T1, von Hippel-Lindau disease tumor suppressor/Dual specificity mitogen-activated protein kinase kinase 2/Dual specificity mitogen-activated protein kinase kinase 1 (Homo sapiens); assay: Protac activity at VHL/MEK in human A375 cells assessed as MEK1 degradation at 10 uM incubated for 2 hrs in presence of ploy(I:C) stimulation by Surefire assay; format: cell-based
A-375 [14] = assay: Reduction in MEK1 protein level in human A375 cells at 100 pM to 10 uM incubated for 12 hrs followed by poly(I:C) treatment and measured after 4 hrs by Surefire assay relative to untreated control; format: functional
[15] = target: T1, von Hippel-Lindau disease tumor suppressor/Dual specificity mitogen-activated protein kinase kinase 2/Dual specificity mitogen-activated protein kinase kinase 1 (Homo sapiens); assay: Protac activity at VHL/MEK in human A375 cells assessed as MEK1 degradation at 10 uM incubated up to 8 hrs in presence of poly(I:C) stimulation by Surefire assay; format: cell-based
[16] = target: T2, Dual specificity mitogen-activated protein kinase kinase 1; assay: Inhibition of MEK1 in human A375 cells assessed as reduction in IL6 secretion at 1 to 10 uM incubated for 12 hrs followed by poly(I:C) treatment and measured after 4 hrs by AlphaLISA assay; format: cell-based
A-375 [17] = assay: Reduction in MEK1 protein expression in human A375 cells at 10 uM incubated for 16 hrs in presence of poly(I:C) stimulation by Surefire assay; format: functional, cell-based
[18] = target: T2, Dual specificity mitogen-activated protein kinase kinase 1; assay: Inhibition of MEK1 in human A375 cells assessed as inhibition of ERK1/2 phosphorylation at 1 to 10 uM incubated for 12 hrs followed by poly(I:C) treatment and measured after 4 hrs by Surefire assay; format: cell-based
[19] = Lipophilicity, log D of compound; format: physicochemical; conditions: octanol/water
[20] = target: T2, Dual specificity mitogen-activated protein kinase kinase 1; assay: Inhibition of MEK1 in human A375 cells assessed as reduction in ERK1/2 phosphorylation at 10 uM incubated for 1 to 16 hrs in presence of poly(I:C) stimulation by Surefire assay; format: cell-based
A-375 [21] = assay: Antiproliferative activity against human A375 cells assessed as reduction in cell viability; format: functional, cell-based
[22] = Aqueous solubility of the compound in buffer at pH 7.4; format: physicochemical

Row | inhibition [1] [%] | Activity [2] [%] | Activity [4] | Activity [5] | Activity [6] [%] | Activity [7] | IC50 [8] [µM] | Activity [9] | Activity [10] | Activity [11] | Activity [12] | Activity [13] | logD [19] | IC50 (A-375 [21]) [µM] | SMILES | growth inhibition (GI) (A-375 [3]) | other results
1 | 100 | 72 | Active | Active | 95 | Active | 0.158 | Active | Active | Active | Active | Active | – | – | Cc1ncsc1-c1ccc([C@H](C)NC(=O)[C@@H]2C[C@@H](O)CN2C(=O)[C@@H](NC(=O)COCCOCCOCCNC(=O)COc2ccc(S(=O)(=O)Nc3cc(C)c(=O)n(C)c3Nc3ccc(I)cc3F)cc2)C(C)(C)C)cc1 | Active | –
2 | – | -7 | – | inactive | 1 | – | 0.398 | – | inactive | – | – | – | 3.9 | – | Cc1cc(NS(=O)(=O)c2ccccc2)c(Nc2ccc(I)cc2F)n(C)c1=O | Active | inhibition (INH) (A-375 [14]): 20%; Activity [15]: inactive; inhibition [16]: Active; inhibition (A-375 [17]): Active; inhibition [18]: Active; inhibition [20]: Active
3 | – | – | – | – | – | – | – | – | – | – | – | – | – | 0.00074 | CC(=O)Nc1cccc(-n2c(=O)n(C3CC3)c(=O)c3c(Nc4ccc(I)cc4F)n(C)c(=O)c(C)c32)c1 [TRAMETINIB] | – | –
4 | – | – | – | – | – | – | – | – | – | – | – | – | – | 0.005 | O=C(c1ccc(F)c(F)c1Nc1ccc(I)cc1F)N1CC(O)([C@@H]2CCCCN2)C1 [COBIMETINIB] | – | –
5 | 100 | 90 | Active | Active | 94 | Active | 0.1 | Active | Active | Active | Active | Active | – | – | Cc1ncsc1-c1ccc([C@H](C)NC(=O)[C@@H]2C[C@@H](O)CN2C(=O)[C@@H](NC(=O)COCCOCCOCCNC(=O)CCc2ccc(S(=O)(=O)Nc3cc(C)c(=O)n(C)c3Nc3ccc(I)cc3F)cc2)C(C)(C)C)cc1 | Active | –
6 | 100 | 91 | Active | Active | 96 | Active | 0.1 | Active | Active | Active | Active | Active | 4.3 | – | Cc1ncsc1-c1ccc([C@H](C)NC(=O)[C@@H]2C[C@@H](O)CN2C(=O)[C@@H](NC(=O)COCCOCCOCCOCCNC(=O)CCc2ccc(S(=O)(=O)Nc3cc(C)c(=O)n(C)c3Nc3ccc(I)cc3F)cc2)C(C)(C)C)cc1 | Active | solubility [22]: < 1.5 µM
